In US9408820B2, “Broncholytic drug on the basis of prostaglandin” (OBSCHESTVO S OGRANICHENNOY OTVETSTVENNOST'YU “PROSTANIT …, priority 2012, dated 2016):

Legend:
[1] = test system: patients with bronchial asthma in unstable remission state; assay: broncholytic activity by inhalation in patients with bronchial asthma; assay type: in vivo, human
Excerpt: (§1) The present invention solves the task of creating of bronchial dilating drug on the basis of 1′,3′-dinitroglycerol ester of 11(S),15(S)-dihydroxy-9-keto-5Z,13E-prostadienoic acid (nitroproston). This drug is any form of nitroproston suitable for introduction into the respiratory tract by inhalation, for example in the form of isotonic solution. […] Therapeutic index measured in rodents is greater than 15000.
On the x-axis is the time after the introduction of the nitroproston, min; on the y-axis is the peak exhale velocity (l/min). The names of patients are abbreviated.
(§2) The tests were carried out on healthy volunteers (average age 42.6±3.9 years) and patients with bronchial asthma in unstable remission state (average age 48.3±5.1 years). Nitroproston was introduced via inhalation in the form of a solution in the physiological solution in doses of 5 and 7.5 μg per inhalation. To a person skilled in the art will not meet a difficulty to prepare the solution for inhalation, knowing the dose of the active substance and the volume of the solution, which will be determined by technical features used in the specific context of the inhaler. […] External respiratory function was determined with the help of automatic spiroanalyzer (VI 8911, Estonia). […] So, change the maximum 25% volume exhalation velocity ranged from 10.4 to 32.2% as compared to the original values. Changes in peak volumetric velocity of exhalation in patients who have received 7.5 micrograms nitroproston per inhalation, are presented at the FIG. 1.

healthy volunteers = assay: inhalation in healthy volunteers, external respiratory function; assay type: in vivo, human
Experimental: as §1, §2

guinea pig trachea = conditions: isolated guinea pig trachea; read-out: EC50, relaxation of the guinea pig trachea; cited from earlier work
individuals = conditions: in vivo; cited from earlier work
white outbred male mice [2] = assay: toxicity in repeated introduction in mice; assay type: in vivo; conditions: 50 and 500 μg/kg daily for 14 days
Experimental: Experiments conducted on white outbred male mice (22±2 g weight). Animals were divided into three groups of 10 animals each. Nitroproston (1% of alcoholic solution) was diluted with water and was injected in the volume 20 μl in two doses: 50 and 500 μg/kg. The control group was injected with equal volume of distilled water. The injections worked every day for 14 days. The animals were observed daily, measuring their weight, the intake of food and water. There have been observed no differences in the state and behavior of the animals between the control and experimental groups.

white outbred male mice [3] = assay: acute toxicity and therapeutic index in mice; assay type: in vivo; conditions: alcohol solution
Experimental: Experiments conducted on white outbred male mice (22±2 g weight). Nitroproston in the form of alcohol solution was injected intraperitoneal to the 10 mice in a maximum of 50 μl per dose of 215 mg/kg. The control group (10 animals) was injected with the same volume of pure ethyl alcohol. Animal health monitoring period was 14 days. Therapeutic index defined as the ratio of LD50 values (toxic dose) to the ED20 for change in blood pressure (pharmacological dose).

Row | SMILES | bronchospasm test result ([1]; patients with bronchial asthma) | changes in the functions of the external respiration (healthy volunteers) | EC50 (guinea pig trachea) | side effect in individuals (individuals) | toxic effects on repeated introduction (white outbred male mice [2]) | parameters of external breath ([1]; 5 μg per inhalation) | side effects ([1]; 5 μg per inhalation) | external respiration indices ([1]; 7.5 μg per inhalation) | toxicity at therapeutic doses ([1]; 5-20 μg per inhalation) | peak volumetric velocity of exhalation ([1]; 7.5 micrograms per inhalation, within 360 minutes (FIG. 1)) | only side effect of the inhalation solution ([1]; inhalation solution) | bronchial dilation and side effects ([1]; isotonic solution, 7.5 micrograms per inhalation) | cough bouts ([1]; patients with asthma, inhalation) | animal deaths (white outbred male mice [3]; 215 mg/kg intraperitoneal, 14 days observation) | acute toxicity assessment (white outbred male mice [3]; intraperitoneal, mice) | cough bouts (healthy volunteers)
1 | CC(Cc1ccc(O)cc1)NCC(O)c1cc(O)cc(O)c1 (stereo not drawn) [Berotec, reference compound] | positive result | did not cause significant changes | – | – | – | – | – | – | – | – | – | – | – | – | – | –
2 | CCCCC[C@H](O)/C=C/[C@H]1[C@H](O)CC(=O)[C@@H]1C/C=C\CCCC(=O)O [natural prostaglandin E2, prostaglandin E2, reference compound] | – | – | 140 ± 80 nM | strong cough reflex | – | – | – | – | – | – | – | – | – | – | – | –
3 | CCCCC[C@H](O)/C=C/[C@H]1[C@@H](O)CC(=O)[C@@H]1C/C=C\CCCC(=O)OC(CO[N+](=O)[O-])CO[N+](=O)[O-] [nitroproston, 1′,3′-dinitroglycerol ester of 11(S),15(S)-dihydroxy-9-keto-5Z,13E-prostadienoic acid] | – | did not cause significant changes | 7 nM | – | no toxic effects | improved slightly | have not noticed any side effects | have been improved | non-toxic | strongest increase | transient dry mouth | prolonged dilation of bronchus without side effects | no cough bouts | animal deaths have not observed | low-toxic compound | no cough bouts
